# Measurements taken from PubChem BioAssay AID1918957 (Molecular Pharmacology Branch, DTP, NCI, 2023).
# Where “and” joins values, the source holds several entries; their conditions need not be identical. Equal values may be shown once.
# System: NCI-H1876 complex spheroid viability
# Assay: Anticancer human tumor NCI-H1876 cell line growth inhibition [LSD1];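 further: spheroids exposed to compounds for one week before readout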;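 on viability, T/C: 100% = DMSO vehicle-treated spheroids so lower means fewer viable cells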
# Details: for viability, T/C: stronger effect = lower value
# Excerpt: Multicellular complex tumor spheroid response to LSD1 Inhibitor Iadademstat in combination with a variety of drugs and investigational agents in selected tumor cell lines
# The current study was undertaken to assess response to LSD1 inhibitors in combination with standard-of-care drugs and investigational agents in solid tumor complex spheroid models as well as in the K-562 leukemia. Complex spheroids include a stromal component modeled by human endothelial cells (HUVEC) and fibroblasts modeled by human mesenchymal stem cells (MSCs). The concentration ranges selected for each drug and investigational agent were based upon clinically achievable concentrations if the clinical Cmax of the agent was known.
# Compounds. The drugs and investigational agents used in this study are listed on Table 1. All of the agents used, including staurosporine (NSC755774) and gemcitabine (NSC613327), were obtained from the Developmental Therapeutics Program, NCI. FDA-approved anticancer drugs are available from the NCI at http://dtp.nci.nih.gov/branches/dscb/oncology_drugset_explanation.html. Drugs and investigational agents were >95% pure by proton nuclear magnetic resonance (NMR) and liquid chromatography/mass spectrometry (LC/MS). Stock solutions were prepared at 400x in DMSO, stored at -70 degrees C, and diluted in fresh medium prior to their use. The final concentration of DMSO in cell culture wells never exceeded 0.25% (v/v). The FDA-approved anticancer drug set is available from the Developmental Therapeutics Program at https://dtp.cancer.gov/organization/dscb/obtaining/available_plates.htm. All drugs and investigational agents were tested over a range starting from a high concentration at or near the clinical Cmax and decreasing in half-log increments. If the clinical Cmax for an agent had not been determined, the highest concentration tested was 10 microM.
# Cell Lines. The patient-derived cancer cell (PDC) lines: 292921-168-R-J2-PDC, K24384-001-R-PDC, and 521955-158-R2-J5-PDC pancreatic carcinomas, 556581-035-R-J1 ovarian carcinoma, 324938-238-R-J1-PDC, 855422-203-R-J1-PDC and 883617-216-R-J1-PDC urothelial bladder carcinomas, 743489-274-T-PDC renal cell carcinoma, 138582-R-J1 Merkel cell tumor, K60290-347-R-J1 and K57222-313-R-J1-PDC glioblastomas, 653999-131-R-J2-PDC, LG0703-F948-PDC, and 349418-098-R-PDC non-small cell lung carcinomas, 885512-296-R-J2-PDC, 171881-019-R-J1-PDC breast carcinomas and 186277-243-T-J2-PDC and 233499-124-R-J2-PDC colon carcinomas were obtained from the NCI Patient-Derived Models Repository (PDMR, https://pdmr.cancer.gov). The established cell lines NCI/ADR-RES (RRID:CVCL_14520 and OVCAR-5 (RRID:CVCL_1628) ovarian carcinomas, 786-O (RRID:CVCL_1051) and A498 (RRID:CVCL_A498) renal cell carcinoma, NCI-H211 (ATCC, cat. CRL-5824; RRID:CVCL_1529), NCI-H196 (ATCC, cat. CRL-5823, RRID:CVCL_1509), SW 1271 (ATCC, cat. CRL-2177, RRID:CVCL_1716) and NCI-H1876 (ATCC, cat. CRL-5902, RRID:CVCL_1503) small cell lung carcinomas, MDA-MB-231 (RRID:CVCL_0062) and MDA-MB-468 (RRID:CVCL_0419)breast carcinomas (10-12). Pooled donor human umbilical vein endothelial cells (HUVEC, Lonza, cat. CC-2519) and human mesenchymal stem cells (hMSC, Lonza, cat. PT-2501) were purchased from Lonza (Walkersville, MD).
# Cell Culture. All cells were maintained in an incubator at 37 degrees C and 5% CO2 with 95% humidity. The PDC lines were cultured according to standard operating procedures established by the NCI PDMR (https://pdmr.cancer.gov). Briefly all PDCs were thawed and cultured in Matrigel-coated flasks prepared with a working solution of 1X Ham's F-12 nutrient mix, without supplementation (Invitrogen, Waltham, MA, cat. 11765054), 100 U/mL penicillin-streptomycin (Invitrogen, cat. 15140122), and 2.5% Matrigel (Corning Inc., Corning, NY, cat. 354248) for the first three passages. […]
# [1] = curve of first compound, second compound 0.1 µM
# [2] = curve of first compound, second compound 0.316 µM
# [3] = curve of first compound, second compound 1 µM
# [4] = curve of first compound, second compound 3.16 µM
# [5] = curve of first compound, second compound 10 µM
# [6] = second compound 0.1 µM, first compound 0.00949 µM
# [7] = second compound 0.1 µM, first compound 0.03 µM
# [8] = second compound 0.1 µM, first compound 0.0949 µM
# [9] = second compound 0.1 µM, first compound 0.3 µM
# [10] = second compound 0.1 µM, first compound 0.949 µM
# [11] = second compound 0.1 µM, first compound 3 µM
# [12] = second compound 0.316 µM, first compound 0.00949 µM
# [13] = second compound 0.316 µM, first compound 0.03 µM
# [14] = second compound 0.316 µM, first compound 0.0949 µM
# [15] = second compound 0.316 µM, first compound 0.3 µM
# [16] = second compound 0.316 µM, first compound 0.949 µM
# [17] = second compound 0.316 µM, first compound 3 µM
# [18] = second compound 1 µM, first compound 0.00949 µM
# [19] = second compound 1 µM, first compound 0.03 µM
# [20] = second compound 1 µM, first compound 0.0949 µM
# [21] = second compound 1 µM, first compound 0.3 µM
# [22] = second compound 1 µM, first compound 0.949 µM
# [23] = second compound 1 µM, first compound 3 µM
# [24] = second compound 3.16 µM, first compound 0.00949 µM
# [25] = second compound 3.16 µM, first compound 0.03 µM
# [26] = second compound 3.16 µM, first compound 0.0949 µM
# [27] = second compound 3.16 µM, first compound 0.3 µM
# [28] = second compound 3.16 µM, first compound 0.949 µM
# [29] = second compound 3.16 µM, first compound 3 µM
# [30] = second compound 10 µM, first compound 0.00949 µM
# [31] = second compound 10 µM, first compound 0.03 µM
# [32] = second compound 10 µM, first compound 0.0949 µM
# [33] = second compound 10 µM, first compound 0.3 µM
# [34] = second compound 10 µM, first compound 0.949 µM
# [35] = second compound 10 µM, first compound 3 µM
compound,measurement,setting,value
CC(C)CC(NC(=O)CNC(=O)c1cc(Cl)ccc1Cl)B1OC(=O)CC(CC(=O)O)(C(=O)O)O1 (configuration not stated),"viability, T/C",compound 0.000316 µM,102% and 97.5%
same,"viability, T/C",compound 0.001 µM,98.9% and 91.9%
same,"viability, T/C",compound 0.00316 µM,90.3% and 96%
same,"viability, T/C",compound 0.01 µM,52.4% and 36.7%
same,"viability, T/C",compound 0.0316 µM,7.69% and 2.11%
same,"viability, T/C",compound 0.1 µM,15.7% and 0.34%
same,IC50,curve of compound,10.3 nM and 7.69 nM
COc1cc(C2c3cc4c(cc3C(OC3OC5COC(C)OC5C(O)C3O)C3COC(=O)C23)OCO4)cc(OC)c1O (configuration not stated) + NC1CC1c1ccc(-c2cccc(O)c2)cc1,IC50,[1],36.6 nM
same,IC50,[2],34.6 nM
same,IC50,[3],35.2 nM
same,IC50,[4],40.4 nM
same,IC50,[5],35.3 nM
same,"viability, T/C",[6],87.6%
same,"viability, T/C",[7],56.3%
same,"viability, T/C",[8],20.1%
same,"viability, T/C",[9],11.4%
same,"viability, T/C",[10],8.84%
same,"viability, T/C",[11],10.2%
same,"viability, T/C",[12],84.4%
same,"viability, T/C",[13],54.4%
same,"viability, T/C",[14],18.6%
same,"viability, T/C",[15],10.9%
same,"viability, T/C",[16],9.79%
same,"viability, T/C",[17],8.38%
same,"viability, T/C",[18],92%
same,"viability, T/C",[19],55.2%
same,"viability, T/C",[20],18%
same,"viability, T/C",[21],11.6%
same,"viability, T/C",[22],9.23%
same,"viability, T/C",[23],8.55%
same,"viability, T/C",[24],93.9%
same,"viability, T/C",[25],60.5%
same,"viability, T/C",[26],19.9%
same,"viability, T/C",[27],13%
same,"viability, T/C",[28],9%
same,"viability, T/C",[29],8.78%
same,"viability, T/C",[30],85.3%
same,"viability, T/C",[31],54.9%
same,"viability, T/C",[32],20.7%
same,"viability, T/C",[33],13.8%
same,"viability, T/C",[34],11%
same,"viability, T/C",[35],9.82%
O=C(C=Cn1cnc(-c2cc(C(F)(F)F)cc(C(F)(F)F)c2)n1)NNc1cnccn1 + NC1CC1c1ccc(-c2cccc(O)c2)cc1,IC50,[1],78 nM
same,IC50,[2],78.6 nM
same,IC50,[3],83 nM
same,IC50,[4],86 nM
same,IC50,[5],109 nM
same,"viability, T/C","second compound 0.1 µM, first compound 0.00316 µM",96.7%
same,"viability, T/C","second compound 0.1 µM, first compound 0.01 µM",97.2%
same,"viability, T/C","second compound 0.1 µM, first compound 0.0316 µM",77.9%
same,"viability, T/C","second compound 0.1 µM, first compound 0.1 µM",42.8%
same,"viability, T/C","second compound 0.1 µM, first compound 0.316 µM",16.4%
same,"viability, T/C","second compound 0.1 µM, first compound 1 µM",11.7%
same,"viability, T/C","second compound 0.316 µM, first compound 0.00316 µM",105%
same,"viability, T/C","second compound 0.316 µM, first compound 0.01 µM",104%
same,"viability, T/C","second compound 0.316 µM, first compound 0.0316 µM",81.8%
same,"viability, T/C","second compound 0.316 µM, first compound 0.1 µM",42%
same,"viability, T/C","second compound 0.316 µM, first compound 0.316 µM",16.4%
same,"viability, T/C","second compound 0.316 µM, first compound 1 µM",11.3%
same,"viability, T/C","second compound 1 µM, first compound 0.00316 µM",97.5%
same,"viability, T/C","second compound 1 µM, first compound 0.01 µM",103%
same,"viability, T/C","second compound 1 µM, first compound 0.0316 µM",83.1%
same,"viability, T/C","second compound 1 µM, first compound 0.1 µM",44.1%
same,"viability, T/C","second compound 1 µM, first compound 0.316 µM",16.7%
same,"viability, T/C","second compound 1 µM, first compound 1 µM",12.9%
same,"viability, T/C","second compound 3.16 µM, first compound 0.00316 µM",97.1%
same,"viability, T/C","second compound 3.16 µM, first compound 0.01 µM",99.5%
same,"viability, T/C","second compound 3.16 µM, first compound 0.0316 µM",78.7%
same,"viability, T/C","second compound 3.16 µM, first compound 0.1 µM",46.9%
same,"viability, T/C","second compound 3.16 µM, first compound 0.316 µM",18.2%
same,"viability, T/C","second compound 3.16 µM, first compound 1 µM",14.1%
same,"viability, T/C","second compound 10 µM, first compound 0.00316 µM",96%
same,"viability, T/C","second compound 10 µM, first compound 0.01 µM",92.4%
same,"viability, T/C","second compound 10 µM, first compound 0.0316 µM",81.1%
same,"viability, T/C","second compound 10 µM, first compound 0.1 µM",53.5%
same,"viability, T/C","second compound 10 µM, first compound 0.316 µM",22.8%
same,"viability, T/C","second compound 10 µM, first compound 1 µM",18.4%
O=C(C=Cc1cccc(S(=O)(=O)Nc2ccccc2)c1)NO + NC1CCC(NC2CC2c2ccccc2)CC1,IC50,[1],196 nM
same,IC50,[2],193 nM
same,IC50,[3],179 nM
same,IC50,[4],193 nM
same,IC50,[5],158 nM
same,"viability, T/C",[6],109%
same,"viability, T/C",[7],103%
same,"viability, T/C",[8],89.3%
same,"viability, T/C",[9],27%
same,"viability, T/C",[10],12.8%
same,"viability, T/C",[11],10.9%
same,"viability, T/C",[12],103%
same,"viability, T/C",[13],101%
same,"viability, T/C",[14],87%
same,"viability, T/C",[15],27.1%
same,"viability, T/C",[16],13.9%
same,"viability, T/C",[17],19.6%
same,"viability, T/C",[18],103%
same,"viability, T/C",[19],105%
same,"viability, T/C",[20],77.3%
same,"viability, T/C",[21],27.3%
same,"viability, T/C",[22],6.13%
same,"viability, T/C",[23],0.61%
same,"viability, T/C",[24],101%
same,"viability, T/C",[25],106%
same,"viability, T/C",[26],82.2%
same,"viability, T/C",[27],29.8%
same,"viability, T/C",[28],4.78%
same,"viability, T/C",[29],0.3%
same,"viability, T/C",[30],105%
same,"viability, T/C",[31],99.3%
same,"viability, T/C",[32],69.8%
same,"viability, T/C",[33],26.6%
same,"viability, T/C",[34],3.06%
same,"viability, T/C",[35],19.4%
